# Reference: ChEMBL document CHEMBL1201862, “PubChem BioAssay data set” (2004)
#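 Where inhibition never reached the appropriate level, the endpoint shown equals the highest concentration tested. Otherwise, values were interpolated linearly from a five-concentration, 48-hour dose response in 96-well plates. Here, GI50 denotes the concentration required for 50% inhibition of growth.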 Activity calls are given as the source filed them. No stated cut-off is given here; in the data, active = GI50 up to about 1.1 µM and inactive = higher.
# What was measured:
# Assay in all cases: growth of human tumour cells (NCI), 48 h
# RPMI-8226 = tested on: RPMI-8226
# SW-620 = tested on: SW-620
# HOP-92 = tested on: HOP-92
# A549 = tested on: A549
# NCI-H23 = tested on: NCI-H23
# OVCAR-3 = tested on: OVCAR-3
# NCI-H522 = tested on: NCI-H522
# ACHN = tested on: ACHN
# NCI-H460 = tested on: NCI-H460
# EKVX = tested on: EKVX
# IGROV-1 = tested on: IGROV-1
# UACC-62 = tested on: UACC-62
# U-251 = tested on: U-251
# CCRF-CEM = tested on: CCRF-CEM
# M14 = tested on: M14
# SNB-75 = tested on: SNB-75
# A498 = tested on: A498
# UACC-257 = tested on: UACC-257
# SNB-19 = tested on: SNB-19
# K562 = tested on: K562
Compound,GI50 (RPMI-8226),GI50 (SW-620),GI50 (HOP-92),GI50 (A549),GI50 (NCI-H23),GI50 (OVCAR-3),GI50 (NCI-H522),GI50 (ACHN),GI50 (NCI-H460),GI50 (EKVX),GI50 (IGROV-1),GI50 (UACC-62),GI50 (U-251),GI50 (CCRF-CEM),GI50 (M14),GI50 (SNB-75),GI50 (A498),GI50 (UACC-257),GI50 (SNB-19),GI50 (K562)
COc1ccc2c(c1)c(=O)c1c(NCCCN(C)C)ccc3ncn2c31,1.29 µM (inactive),1.01 µM (active),4.13 µM (inactive),1.19 µM (inactive),5.87 µM (inactive),10.4 µM (inactive),0.993 µM (active),0.659 µM (active),1.39 µM (inactive),13.8 µM (inactive),3.5 µM (inactive),11.4 µM (inactive),1.35 µM (inactive),1.61 µM (inactive),4.78 µM (inactive),6.3 µM (inactive),11.2 µM (inactive),12.2 µM (inactive),3.95 µM (inactive),2.92 µM (inactive)
CCOC(C[Se]CC(OCC)OCC)OCC,> 100 µM (inactive),85.3 µM (inactive),39.6 µM (inactive),75.5 µM (inactive),34.2 µM (inactive),> 100 µM (inactive),> 100 µM (inactive),> 100 µM (inactive),65.9 µM (inactive),> 100 µM (inactive),24.1 µM (inactive),28.4 µM (inactive),14.6 µM (inactive),33.4 µM (inactive),52.8 µM (inactive),13.2 µM (inactive),> 100 µM (inactive),85.1 µM (inactive),48.8 µM (inactive),> 100 µM (inactive)
Cc1ccc(S(=O)(=O)N2CCCCN(S(=O)(=O)c3ccc(C)cc3)Cc3ccccc3OCCOCCOc3c4cccc3Cc3cccc5c3OCCOCCOc3ccccc3CN(S(=O)(=O)c3ccc(C)cc3)CCCN(S(=O)(=O)c3ccc(C)cc3)Cc3ccccc3OCCOCCOc3c(cccc3C4)Cc3cccc(c3OCCOCCOc3ccccc3C2)C5)cc1,> 100 µM (inactive),> 100 µM (inactive),> 100 µM (inactive),> 100 µM (inactive),> 100 µM (inactive),> 100 µM (inactive),78.9 µM (inactive),> 100 µM (inactive),> 100 µM (inactive),> 100 µM (inactive),> 100 µM (inactive),> 100 µM (inactive),> 100 µM (inactive),> 100 µM (inactive),> 100 µM (inactive),> 100 µM (inactive),53.2 µM (inactive),> 100 µM (inactive),> 100 µM (inactive),> 100 µM (inactive)
COc1c(O)ccc(C2=Cc3ccc(O)cc3OC2)c1OC,3.51 µM (inactive),26.7 µM (inactive),24 µM (inactive),24.8 µM (inactive),22.3 µM (inactive),14.9 µM (inactive),2.34 µM (inactive),6.56 µM (inactive),31 µM (inactive),15.1 µM (inactive),25.8 µM (inactive),16.2 µM (inactive),26 µM (inactive),4.37 µM (inactive),21 µM (inactive),14.9 µM (inactive),27.9 µM (inactive),30.3 µM (inactive),55.3 µM (inactive),7.08 µM (inactive)
CC1(C)OC(=C(C#N)C#N)C(C#N)=C1/C=C/c1ccncc1,1.65 µM (inactive),2.27 µM (inactive),2.42 µM (inactive),11.4 µM (inactive),2.35 µM (inactive),1.84 µM (inactive),2.05 µM (inactive),1.87 µM (inactive),6.53 µM (inactive),2.32 µM (inactive),2.17 µM (inactive),1.95 µM (inactive),1.85 µM (inactive),0.851 µM (active),2.56 µM (inactive),3.05 µM (inactive),7.69 µM (inactive),2.95 µM (inactive),2.59 µM (inactive),3.14 µM (inactive)
CCCCCCCCCCCC[C@@H](O)[C@H]1CCC([C@H](O)CCCCC(=O)CCCCCCCC2=C[C@H](C)OC2=O)O1 (stereo not given in full),2.5 µM (inactive),> 29.1 µM (inactive),> 27 µM (inactive),10.4 µM (inactive),0.0957 µM (active),> 50 µM (inactive),15.4 µM (inactive),> 33.6 µM (inactive),2.26 µM (inactive),14.1 µM (inactive),> 50 µM (inactive),17.4 µM (inactive),13.3 µM (inactive),4.59 µM (inactive),15 µM (inactive),> 37.9 µM (inactive),26.2 µM (inactive),7.96 µM (inactive),> 28.2 µM (inactive),2.98 µM (inactive)
N#CC(N)(C(=O)C(=O)NCCCNC(=O)C(=O)C(N)(C#N)c1ccc(Cl)cc1)c1ccc(Cl)cc1 (stereo not given),> 100 µM (inactive),> 100 µM (inactive),> 100 µM (inactive),> 100 µM (inactive),> 100 µM (inactive),> 100 µM (inactive),> 100 µM (inactive),> 100 µM (inactive),> 100 µM (inactive),> 100 µM (inactive),> 100 µM (inactive),> 100 µM (inactive),> 100 µM (inactive),> 100 µM (inactive),> 100 µM (inactive),> 100 µM (inactive),> 100 µM (inactive),> 100 µM (inactive),> 100 µM (inactive),95.3 µM (inactive)
O=C1CC(n2cccc2)c2cc(Br)sc21 (stereo not given),26.4 µM (inactive),35 µM (inactive),> 100 µM (inactive),> 100 µM (inactive),39.1 µM (inactive),> 100 µM (inactive),21.6 µM (inactive),> 100 µM (inactive),> 100 µM (inactive),> 100 µM (inactive),> 100 µM (inactive),> 100 µM (inactive),> 100 µM (inactive),18.7 µM (inactive),> 100 µM (inactive),7.93 µM (inactive),> 100 µM (inactive),> 100 µM (inactive),> 100 µM (inactive),> 100 µM (inactive)
CNC(=O)OC1/C(C)=C\C(C)C(O)C(OC)CC(C)CC2=C(OC)C(=O)C=C(C2=O)N(C)C(=O)/C(C)=C/C=C\C1OC (stereo not given),1.67 µM (inactive),0.35 µM (active),2.8 µM (inactive),14.3 µM (inactive),4.86 µM (inactive),3.8 µM (inactive),0.879 µM (active),8.24 µM (inactive),11.1 µM (inactive),11.9 µM (inactive),10.8 µM (inactive),3.84 µM (inactive),15.2 µM (inactive),0.938 µM (active),3.08 µM (inactive),14.2 µM (inactive),18.5 µM (inactive),5.02 µM (inactive),36.2 µM (inactive),0.578 µM (active)
Cc1cccc2cc3ccc4ccccc4c3cc12,34.6 µM (inactive),44 µM (inactive),98.9 µM (inactive),37.1 µM (inactive),54.5 µM (inactive),63.2 µM (inactive),27.9 µM (inactive),46.7 µM (inactive),25.4 µM (inactive),21.2 µM (inactive),55 µM (inactive),80.9 µM (inactive),41.4 µM (inactive),20.1 µM (inactive),48.5 µM (inactive),69.2 µM (inactive),44.2 µM (inactive),20 µM (inactive),76.2 µM (inactive),63.1 µM (inactive)
